Results: patent publication US20180153993A1, “COMPOSITIONS AND METHODS FOR TREATMENT AND PREVENTION OF CARDIOVASCULAR DISEASES” (The Chinese University of Hong Kong, priority 2016, published 2018)

Tests used:
[1] = test system: YAP; assay: YAP phosphorylation (Ser127, pYAP) by immunoblotting in HUVECs; format: cell-based, human
Protocol: Cells or tissues were homogenized in cold RIPA lysis buffer supplemented with complete protease inhibitors cocktail and phosSTOP phosphatase inhibitor (Roche). The protein concentration was determined using Bradford Assay (Bio-Rad). Ten micrograms of protein were resolved by SDS-polyacrylamide gel electrophoresis and transferred to the PVDF membrane (Bio-Rad). Target protein was detected using specific primary antibody. Bound antibodies were detected by horseradish-peroxidase-conjugated secondary antibody and visualized by enhanced chemiluminescence (Cell Signaling Technology). Experiments were repeated three times and the target protein level was quantified by imageJ and normalized to internal control (or pYAP was normalized by total YAP) (FIGS. 10 and 11).
(§1) HUVECs and human aortic ECs were purchased from Lonza (EGM, Clonetics, Lonza, Walkersville, Md., USA). Lonza guarantees that the cells express CD31/105, von Williebrand Factor VIII, and are positive for acetyated low density lipoprotein uptake. Mycoplasma contamination was not tested during the experiments. HUVECs maintained in EGM supplemented with EGS and FBS at 37° C. in an incubator with 95% humidified air and 5% CO2 and passed every 3 days. Cells within seven passages were used in in vitro study.

[2] = test system: RhoA; assay: GST-RBD pull-down for active RhoA (GTP-RhoA) detection; format: cell-based, human; conditions: MnCl2 treatment
Protocol: GST-RBD recombinant protein was purified from BL21 (DE3) Escherichia coli and affinity conjugated to glutathione sepharose beads (Pharmacia). For GST affinity pull-down, 10^7 cells were lysed in 1 ml Weak Lysis Buffer (Beyotime) supplemented with protease inhibitors (Roche). Cell lysates were centrifuged at 15,000 g at 4° C. for 20 min to remove cell debris. Cell lysates were incubated in sepharose beads conjugated with 1 μg GST-RBD and incubate at 4° C. for 2 h with constant agitation, and precipitated by centrifugation at 1,000 r.p.m. for 10 min. After three washes, beads were collected by centrifugation and boiled in 2× SDS loading buffer for 5 min. The active RhoA was determined by western blotting.

[3] = test system: ApoE−/− mice; assay: Oral administration of MnCl2 in ApoE-/- mice on Western diet, Oil Red O staining of atherosclerotic plaques; format: in vivo, mouse; conditions: Western diet 12 weeks, MnCl2 oral in drinking water 5 mg/kg body weight
Protocol: ApoE^−/− mice (male, 12 weeks old) were fed a Western diet, and MnCl2 was administered through voluntary water consumption. Water consumption rate was predetermined by monitoring the volume of water remained. MnCl2 was supplemented to drinking water to achieve 5 mg/kg body weight. Mice body weight and water consumption were adjusted weekly to adapt to the change of body weight and water consumption. After feeding on the Western diet for 3 months, the mice were killed and the atherosclerotic plaque formation was determined by Oil Red O staining.
The ApoE^−/− mice were killed by CO2 asphyxiation. Mouse aortas were dissected in cold PBS and cut open to expose the atherosclerotic plaques. After fixation in 4% formaldehyde for 16 h at 4° C., the tissues were first rinsed in water for 10 min and then in 60% isopropanol. The aortas were stained with Oil Red O for 15 min with gentle shaking, and rinsed again in 60% isopropanol and then in water for three rinses. The samples were fixed on the cover slides with the endothelial surface facing upwards. The images were recorded using an HP Scanjet G4050. The plaque areas were determined using National Institutes of Health ImageJ software and calculated by expressing the plaque area relative to the total vascular area.

[4] = test system: YAP/TAZ; assay: YAP/TAZ reporter (8xGTIIC-luc) gene activity in HUVECs; format: cell-based, human
[5] = test system: YAP/TAZ; assay: YAP/TAZ nuclear exportation in HUVECs; format: cell-based, human
[6] = test system: YAP/TAZ; assay: YAP/TAZ reporter gene activity assay of anti-atherosclerotic agents (YAP/TAZ inhibition test); format: cell-based, human; conditions: working concentrations of Table 1: apelin 100 nM, ApoA1 10 μg/mL, niacin 3 to 5 mM, statins 1-10 μM
From the text: Adenovirus-mediated reporter system and immortalized human aortic endothelial cells (HAECs) are used for drug screening. […] Endothelial cells express specific receptors that determine their unique response to different drug treatment. Therefore, it is necessary to use endothelial cells to study the YAP/TAZ inhibitory effect of lead drugs. Since primary endothelial cells from different donors contain distinct genetic background, which might cause significant variation between different batches of experiments, the immortalized human aortic endothelial cells are used. However, endothelial cells are difficult to be transformed, which could delay research progress and increase cost. To overcome this problem, the inventors have generated adenoviral expressing YAP/TAZ luciferase reporter and renilla internal control. The entire screening process can be completed in two days.

[7] = test system: YAP/TAZ; assay: YAP/TAZ target gene expression (CTGF, CYR61), quantitative real-time PCR in HUVECs; format: cell-based, human; conditions: CTGF and CYR61
Protocol: RNA was extracted by using TRIzol Reagent (Thermo) according to the manufacturer's protocol. cDNA was synthesized using a High-Capacity cDNA Reverse Transcription Kit (Thermo). Quantitative PCR was performed using SYBR Select (Thermo) following the manufacturer's protocol. GAPDH was used as the internal control. Primers used for quantitative real-time PCR were included in Table 2.
as §1

[Cl][Mn][Cl] [MnCl2]
YAP phosphorylation (pYAP) ([1]; MnCl2 0.5 mM): increased pYAP
GTP-RhoA (active RhoA) [2]: GTP-RhoA suppression
atherosclerotic plaque formation [3]: reduced plaque formation
YAP/TAZ reporter gene activity [4]: reduced YAP/TAZ reporter gene activity
YAP/TAZ nuclear exportation [5]: induced YAP/TAZ nuclear exportation

O=C(O)c1cccnc1 [niacin, Nicotinic acid]
YAP/TAZ activity (reporter gene) [6]: suppressed YAP/TAZ activity

Apelin
YAP/TAZ activity (reporter gene) [6]: suppressed YAP/TAZ activity

ApoA1
YAP/TAZ activity (reporter gene) [6]: suppressed YAP/TAZ activity

GRGDSP
YAP phosphorylation (pYAP) ([1]; GRGDSP 100 μg ml−1): increased pYAP
YAP/TAZ target gene expression [7]: suppressed YAP/TAZ target gene expression
